The values below are quoted from earlier work in patent US8877241B2 (Egalet Ltd., priority 2003, dated 2014).

The conditions of the data set: single dose of 10 mg oral morphine, plain tablet composition.

Regarding `CN1CC[C@]23c4c5ccc(O)c4O[C@H]2[C@@H](O)C=C[C@H]3[C@H]1C5` [morphine], the “average duration of action” value was 4 to 5 h.
